Source: ChEMBL document CHEMBL3045844, “Synthetic utility of sydnones: synthesis of pyrazolines derivatized with 1,2,4-triazoles as antihyperglymic, antioxidant agents and their DNA cleavage study” (Med Chem Res, 2012)
Calls of active or inactive are those of the source. The rule behind the calls is not given here.

Tests used:
[1] = test system: Radical scavenging activity; experiment: Antioxidant activity assessed as DPPH radical scavenging activity at 100 ug after 20 min; type: functional
[2] = test system: Radical scavenging activity; experiment: Antioxidant activity assessed as DPPH radical scavenging activity at 10 ug after 20 min; type: functional
[3] = Induction of DNA cleavage at 100 ug after 2 hr by electrophoresis relative to control
[4] = target: T1, Pancreatic alpha-amylase (Homo sapiens) (UniProt P04746); experiment: Activity of alpha amylase (unknown origin) at 1 mg/ml after 10 min relative to control
T1 sequence (whole entry): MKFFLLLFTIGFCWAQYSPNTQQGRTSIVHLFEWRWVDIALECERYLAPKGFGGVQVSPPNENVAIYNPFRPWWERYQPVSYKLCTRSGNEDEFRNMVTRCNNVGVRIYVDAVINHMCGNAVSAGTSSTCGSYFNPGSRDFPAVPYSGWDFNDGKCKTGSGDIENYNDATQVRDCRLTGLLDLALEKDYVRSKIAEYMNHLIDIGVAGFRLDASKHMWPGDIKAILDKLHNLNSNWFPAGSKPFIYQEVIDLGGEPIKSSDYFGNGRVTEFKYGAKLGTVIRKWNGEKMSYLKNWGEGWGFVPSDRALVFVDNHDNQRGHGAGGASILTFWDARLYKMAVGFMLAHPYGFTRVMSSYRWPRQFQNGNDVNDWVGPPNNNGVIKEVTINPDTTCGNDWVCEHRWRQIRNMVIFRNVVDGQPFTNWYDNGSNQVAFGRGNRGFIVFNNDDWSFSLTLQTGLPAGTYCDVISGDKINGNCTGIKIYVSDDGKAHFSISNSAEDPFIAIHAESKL

[5] = test system: Radical scavenging activity; experiment: Antioxidant activity assessed as DPPH radical scavenging activity at 50 ug after 20 min; type: functional

Activity [3] | Activity [4] [%] | SMILES | Activity [1] [%] | Activity [2] [%] | Activity [5] [%]
Active | 126 | CC(=O)N1N=C(c2ccc(-n3nc(C)n(N)c3=O)cc2)CC1c1ccc(Cl)cc1 (stereo not given) | 81.5 | 21.7 | 69.9
Active | 76.7 | CC(=O)N1N=C(c2ccc(-n3nc(C)n(N)c3=O)cc2)CC1c1ccc(O)cc1 (stereo not given) | 16.9 | 3.08 | 9.03
Active | 129 | CC(=O)N1N=C(c2ccc(-n3nc(C)n(N)c3=O)cc2)CC1c1ccccc1 (stereo not given) | 56.1 | 24.7 | 30.2
Active | 96.5 | COc1ccc(C2CC(c3ccc(-n4nc(C)n(N)c4=O)cc3)=NN2C(C)=O)cc1 (stereo not given) | 2.4 | 0.6 | 2.28
Active | 96.5 | CC(=O)N1N=C(c2ccc(-n3nc(C)n(N)c3=O)cc2)CC1c1ccc(C)cc1 (stereo not given) | 82.5 | 23 | 70.1
Active | 76.7 | CC(=O)N1N=C(c2ccc(-n3nc(C)n(N)c3=O)cc2)CC1c1ccccc1Cl (stereo not given) | 78.4 | 20 | 67.8
Active | 102 | CC(=O)N1N=C(c2ccc(-n3nc(C)n(N)c3=O)cc2)CC1c1ccc([N+](=O)[O-])cc1 (stereo not given) | 1.49 | 0.4 | 1.09
Active | 96.5 | CC(=O)N1N=C(c2ccc(-n3nc(C)n(N)c3=O)cc2)CC1c1cccc(Cl)c1 (stereo not given) | 73.8 | 15.2 | 63.8
Active | 64 | COc1ccc(C2CC(c3ccc(-n4nc(C)n(N)c4=O)cc3)=NN2C(C)=O)cc1OC (stereo not given) | 1.67 | 0.48 | 1.18
